Experiment [1] concerns carboxypeptidase activity. Conditions: cited from earlier work.
Experiment [2] concerns aspartic endoproteinase activity. Conditions: activity optimal at pH 3.5; cited from earlier work.
Experiment [3] relates to native aspartic endoproteinase (TcAP2), size exclusion purified pool #57-64. Nature of the experiment: Inhibitor sensitivity of the native purified aspartic endoproteinase (bovine hemoglobin hydrolysis, OPA read-out). Conditions: for Remaining Activity %: pH 3, 10 mg/ml bovine hemoglobin, pepstatin A 0.002 mM, 1,10 phenanthroline 2.0 mM, E-64 0.01 mM, DCI 0.1 mM, two replicates. The experiment is classed as biochemical, Theobroma cacao. On the procedure:
(§1) Aspartic endoproteinase activity was assayed at 42° C. in a 900 μl reaction medium containing 0.2M sodium citrate buffer pH3.0, 10 mg/ml bovine haemoglobin and 150 μl yeast culture supernatant. To stop the reaction aliquots (80 μl) were added to an equal volume of TCA 8% and the precipitated protein removed by centrifugation at 13000 g. 20 μl supernatant were mixed to 250 μl O-phthaldialdehyde (OPA) reagent (50 mM sodium tetraborate, 1% SDS, 5.96 mM OPA (dissolved in 1 ml methanol) and 1.43 mM β-mercaptoethanol. Activity was then determined measuring OD at 340 nm and expressed in pmole leucine produced per mg protein. For this, we use the following linear equation (OD340 nm=0.0156 pmoles+0.0088), which was determined using a standard curve with L-leucine (0 to 80 pmoles). Protein concentration was determined by Bradford assay (Biorad).
The inhibitor sensitivity of the native aspartic endoproteinase was determined in 300 μl reactions containing 200 mM sodium citrate, pH 3, 10 mg/ml bovine hemoglobin, and 5 μl of size exclusion purified pool #57-64 (2.4 μg protein/μl). The inhibitors were added to give a final concentration of 2 μM pepstatin, 2 mM 1,10 phenanthroline, 100 μM dichloroisocoumarin (DCI), 10 μM E-64. The enzyme activity was determined as described in example 5.

Another experiment deals with recombinant TcAP2. Nature of the experiment: Effect of inhibitors on hydrolysis of bovine haemoglobin by recombinant TcAP2. The experiment is classed as biochemical, Theobroma cacao. Conditions: 2 μM pepstatin; for Effect on endoprotease activity of recombinant TcAP2: pH 3, 2 mM 1.10 phenanthroline, 100 μM DCI, 10 μM E64. On the procedure: Inhibitors were added in the reaction at final concentration of 2 mM for 1.10 phenanthroline, 100 μM DCI, 10 μM E64 and 2 μM pepstatin. Activity at pH 3 without inhibitor was taken as 100% and correspond to 28.8±3.8 pmoles L-leucine produced/min/mg protein. Data are means of 3 measurements±SD;
as §1
The pepstatin insensitive activity (1.91±1.26 pmoles L-leucine/min/mg protein, 6.65%) is in the same range as that one measured for the control strain (2.26±1.26 pmoles L-leucine/min/mg protein, 7.8%). Other inhibitors such as 1.10 phenanthroline (metallo proteases), DCI (serine proteases) and E64 (cysteine proteases) have no effect on TcAP2 activity (FIG. 12).

A further experiment concerns bovine haemoglobin. In words: Aspartic endoproteinase activity of recombinant TcAP2 in yeast culture supernatant. The experiment is classed as biochemical. How it is done: Small patches of cells were streaked on YPD agar plates and grown overnight at 28° C. The thin layers of grown cells were used to inoculate 50 ml DMI medium in 500 ml Erlenmeyers with 4 lateral baffles. DMI medium contains per liter: KH2PO4, 10 g; MgSO4,7H2O, 2.5 g; glucose, 20 g; Trace elements solution, 5.1 ml; Vitamins solution, 17 ml; urea, 3 g. Urea was dissolved in 15 ml water and sterile filtered. The initial pH of the medium was adjusted to 5.0. The cultures were shaken at 140 rpm on a rotary shaker at 28° C. for three days. Aliquots of the cultures were centrifuged at maximum speed (3000 g) for 15 min. and the supernatant used for the determination of the aspartic endoproteinase activity.
as §1

Square brackets hold non-standard residues; d marks the D form. Peptide text beside a SMILES is read from it. * marks the point of attachment. Sta = CC(C)C[C@H](N)[C@@H](O)CC(=O)O; Isovaleryl = CC(C)CC(=O)*

As to `O=S(=O)(F)Cc1ccccc1` [PMSF], the “Inhibition of carboxypeptidase activity” value in experiment [1] was “inhibited”.

Regarding `CC(C)CC(=O)N[C@H](C(=O)N[C@H](C(=O)N[C@@H](CC(C)C)[C@@H](O)CC(=O)N[C@@H](C)C(=O)N[C@@H](CC(C)C)[C@@H](O)CC(=O)O)C(C)C)C(C)C` [Pepstatin A] (Isovaleryl-VV[Sta]A[Sta]-OH), the “Inhibition of aspartic endoproteinase activity” value in experiment [2] is given as “inhibited”. The “Inhibition of the purified native protease activity” value in experiment [3] (2 μM pepstatin, pH 3) is given as “inhibits completely”. The “Remaining Activity %” value in experiment [3] was 0%. The Pepstatin insensitive activity in the experiment with recombinant TcAP2 (medium of pCY330-33, pH 3) is given as 1.91±1.26 pmoles L-leucine/min/mg protein. Moreover, the “Pepstatin insensitive activity, % of activity without inhibitor” value with recombinant TcAP2 (activity at pH 3 without inhibitor taken as 100%) amounted to 6.65%. In the experiment with recombinant TcAP2, the “Effect on endoprotease activity of recombinant TcAP2” value (“Effect on endoprotease activity” for short) is reported as “completely inhibited”.

`CC(C)C[C@H](NC(=O)[C@H]1O[C@@H]1C(=O)O)C(=O)NCCCCN=C(N)N` [E-64]: the “Remaining Activity %” value in experiment [3] is 88%. For the same molecule, the “Effect on endoprotease activity” value in the experiment with recombinant TcAP2 is reported as “no effect”.

Take `c1cnc2c(c1)ccc1cccnc12` [1,10 Phenanthroline, 1,10 phenanthroline]: in experiment [3], the “Remaining Activity %” value is 86%. Moreover, in the experiment with recombinant TcAP2, the “Effect on endoprotease activity” value is “no effect”.

As for `O=c1oc(Cl)c(Cl)c2ccccc12` [DCI, dichloroisocoumarin], in experiment [3], the “Remaining Activity %” value amounted to 90%. Besides, the “Effect on endoprotease activity” value in the experiment with recombinant TcAP2 was “no effect”.

B1: TcAP2: aspartic endoproteinase from Theobroma cacao bean (clone CCN51), 514 amino acids; recombinant form secreted by Yarrowia lipolytica clone pCY330-33 (protein)
chain: MGTTIKVVVLSLFISSLLFSVVSSVSNDGLVRIGLKKMKLDPNNRLAARLDSKDGEALRAFIKKYRFRNNLGDSEETDIVALKNYMDAQYYGEIGIGTPTQKFTVIFDTGSSNLWVSSTKCYFSVACYFHEKYKASDSSTYKKDGKPASIQYGTGAISGFFSYDHVQVGDLVVKDQEFIEATKEPGLTFMVAKFDGILGLGFKEISVGDAVPVWYNMIKQGLIKEPVFSFWLNRNVDEEAGGEIVFGGVDPNHYKGKHTYVPVTQKGYWQFDMGDVLIADKPTGYCAGSCAAIADSGTSLLAGPSTVITMINHAIGATGVVSQECKAVVQQYGRTIIDLLIAEAQPQKICSQIGLCTFNGAHGVSTGIESVVDESNGKSSGVLRDAMCPACEMAVVWMQNQVRQNQTQDRILSYVNELCDRVPNPMGESAVDCGSLSSMPTISFTIGGKVFDLTPEEYILKVGEGSEAQCISGFTALDIPPPRGPLWILGDIFMGRYHTVFDFGKLRVGFAEAA
For the molecule B1, the “Activity at pH 3 without inhibitor (taken as 100%)” value in the experiment on bovine haemoglobin (FIG. 12, means of 3 measurements±SD) is on record as 28.8±3.8 pmoles L-leucine produced/min/mg protein. Also, the “Hydrolysis of bovine haemoglobin by supernatant from pCY330-33” value with bovine haemoglobin (pH 3.0, 42° C., means of 3 measurements±SD (FIG. 10)) is 25.8±1.45 pmoles L-leucine/min/mg protein. For the same molecule, the “Activity at pH higher than 5” value in the experiment on bovine haemoglobin (pH higher than 5) is reported as “slight activity”.
